# Experimental data taken from PubChem BioAssay (NCI).
#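 All cell lines were grown in 96-well plates and treated with compound for 48 hours. At the TGI there is no net growth.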
# Columns and labels:
# Assay in all cases: NCI tumour cell line growth inhibition, 48 h
# SK-MEL-28 melanoma = system: SK-MEL-28 melanoma
# NCI-H460 lung = system: NCI-H460 lung
# UACC-62 melanoma = system: UACC-62 melanoma
# NCI/ADR-RES ovarian = system: NCI/ADR-RES ovarian
# MALME-3M melanoma = system: MALME-3M melanoma
# CCRF-CEM leukemia = system: CCRF-CEM leukemia
# HOP-62 NSCLC = system: HOP-62 NSCLC
# HS 578T breast = system: HS 578T breast
# RPMI-8226 leukemia = system: RPMI-8226 leukemia
# MOLT-4 leukemia = system: MOLT-4 leukemia
# SK-OV-3 ovarian = system: SK-OV-3 ovarian
# MDA-MB-231 breast = system: MDA-MB-231 breast
# SF-268 CNS = system: SF-268 CNS
# OVCAR-4 ovarian = system: OVCAR-4 ovarian
# SK-MEL-2 melanoma = system: SK-MEL-2 melanoma
# KM12 colon = system: KM12 colon
# OVCAR-8 ovarian = system: OVCAR-8 ovarian
# U251 CNS = system: U251 CNS
# HOP-92 NSCLC = system: HOP-92 NSCLC
# 786-0 renal = system: 786-0 renal
# NCI-H23 lung = system: NCI-H23 lung
# SNB-19 CNS = system: SNB-19 CNS
# T-47D breast = system: T-47D breast
# NCI-H226 lung = system: NCI-H226 lung
# SW-620 colon = system: SW-620 colon
# UO-31 renal = system: UO-31 renal
# HCC-2998 colon = system: HCC-2998 colon
# IGROV1 ovarian = system: IGROV1 ovarian
# EKVX NSCLC = system: EKVX NSCLC
# SNB-75 CNS = system: SNB-75 CNS
# RXF 393 renal = system: RXF 393 renal
# SR leukemia = system: SR leukemia
# PC-3 prostate = system: PC-3 prostate
# UACC-257 melanoma = system: UACC-257 melanoma
# SN12C renal = system: SN12C renal
# SF-539 CNS = system: SF-539 CNS
# TK-10 renal = system: TK-10 renal
# HT29 colon = system: HT29 colon
# DU-145 prostate = system: DU-145 prostate
# HCT-15 colon = system: HCT-15 colon
# NCI-H522 lung = system: NCI-H522 lung
# ACHN renal = system: ACHN renal
# HCT-116 colon = system: HCT-116 colon
# K-562 leukemia = system: K-562 leukemia
# OVCAR-5 ovarian = system: OVCAR-5 ovarian
# COLO 205 colon = system: COLO 205 colon
# MCF7 breast = system: MCF7 breast
# HL-60(TB) leukemia = system: HL-60(TB) leukemia
# A549 NSCLC = system: A549 NSCLC
# M14 melanoma = system: M14 melanoma
# SK-MEL-5 melanoma = system: SK-MEL-5 melanoma
# BT-549 breast = system: BT-549 breast
# LOX IMVI melanoma = system: LOX IMVI melanoma
# MDA-MB-435 = system: MDA-MB-435
# OVCAR-3 ovarian = system: OVCAR-3 ovarian
# A498 renal = system: A498 renal
# SF-295 CNS = system: SF-295 CNS
compound,measurement,setting,value
Cc1nnc2sc(Cc3cnc(N)s3)nn12,TGI,SK-MEL-28 melanoma,> 100 µM
same,TGI,NCI-H460 lung,> 100 µM
same,TGI,UACC-62 melanoma,> 100 µM
same,TGI,NCI/ADR-RES ovarian,> 100 µM
same,TGI,MALME-3M melanoma,> 100 µM
same,TGI,CCRF-CEM leukemia,> 100 µM
same,TGI,HOP-62 NSCLC,> 100 µM
same,TGI,HS 578T breast,> 100 µM
same,TGI,RPMI-8226 leukemia,> 100 µM
same,TGI,MOLT-4 leukemia,> 100 µM
same,TGI,SK-OV-3 ovarian,> 100 µM
same,TGI,MDA-MB-231 breast,> 100 µM
same,TGI,SF-268 CNS,> 100 µM
same,TGI,OVCAR-4 ovarian,> 100 µM
same,TGI,SK-MEL-2 melanoma,> 100 µM
same,TGI,KM12 colon,> 100 µM
same,TGI,OVCAR-8 ovarian,> 100 µM
same,TGI,U251 CNS,> 100 µM
same,TGI,HOP-92 NSCLC,> 100 µM
same,TGI,786-0 renal,> 100 µM
same,TGI,NCI-H23 lung,> 100 µM
same,TGI,SNB-19 CNS,> 100 µM
same,TGI,T-47D breast,> 100 µM
same,TGI,NCI-H226 lung,> 100 µM
same,TGI,SW-620 colon,> 100 µM
same,TGI,UO-31 renal,> 100 µM
same,TGI,HCC-2998 colon,> 100 µM
same,TGI,IGROV1 ovarian,> 100 µM
same,TGI,EKVX NSCLC,> 100 µM
same,TGI,SNB-75 CNS,> 100 µM
same,TGI,RXF 393 renal,> 100 µM
same,TGI,SR leukemia,> 100 µM
same,TGI,PC-3 prostate,> 100 µM
same,TGI,UACC-257 melanoma,> 100 µM
same,TGI,SN12C renal,> 100 µM
same,TGI,SF-539 CNS,> 100 µM
same,TGI,TK-10 renal,> 100 µM
same,TGI,HT29 colon,> 100 µM
same,TGI,DU-145 prostate,> 100 µM
same,TGI,HCT-15 colon,> 100 µM
same,TGI,NCI-H522 lung,> 100 µM
same,TGI,ACHN renal,> 100 µM
same,TGI,HCT-116 colon,> 100 µM
same,TGI,K-562 leukemia,> 100 µM
same,TGI,OVCAR-5 ovarian,> 100 µM
same,TGI,COLO 205 colon,> 100 µM
same,TGI,MCF7 breast,> 100 µM
same,TGI,HL-60(TB) leukemia,> 100 µM
same,TGI,A549 NSCLC,> 100 µM
same,TGI,M14 melanoma,> 100 µM
same,TGI,SK-MEL-5 melanoma,> 100 µM
CCOC(=O)C1C=C1C(C)(C)O (stereo not given),TGI,SK-MEL-28 melanoma,> 10 µM
same,TGI,BT-549 breast,> 10 µM
same,TGI,NCI-H460 lung,> 10 µM
same,TGI,MALME-3M melanoma,> 10 µM
same,TGI,CCRF-CEM leukemia,> 10 µM
same,TGI,HOP-62 NSCLC,> 10 µM
same,TGI,HS 578T breast,> 10 µM
same,TGI,LOX IMVI melanoma,> 10 µM
same,TGI,RPMI-8226 leukemia,> 10 µM
same,TGI,MOLT-4 leukemia,> 10 µM
same,TGI,SK-OV-3 ovarian,> 10 µM
same,TGI,SF-268 CNS,> 10 µM
same,TGI,MDA-MB-435,> 10 µM
same,TGI,SK-MEL-2 melanoma,> 10 µM
same,TGI,KM12 colon,> 10 µM
same,TGI,OVCAR-8 ovarian,> 10 µM
same,TGI,U251 CNS,> 10 µM
same,TGI,HOP-92 NSCLC,> 10 µM
same,TGI,786-0 renal,> 10 µM
same,TGI,NCI-H23 lung,> 10 µM
same,TGI,SNB-19 CNS,> 10 µM
same,TGI,T-47D breast,> 10 µM
same,TGI,NCI-H226 lung,> 10 µM
same,TGI,SW-620 colon,> 10 µM
same,TGI,UO-31 renal,> 10 µM
same,TGI,IGROV1 ovarian,> 10 µM
same,TGI,OVCAR-3 ovarian,> 10 µM
same,TGI,EKVX NSCLC,> 10 µM
same,TGI,SNB-75 CNS,> 10 µM
same,TGI,RXF 393 renal,> 10 µM
same,TGI,SR leukemia,> 10 µM
same,TGI,PC-3 prostate,> 10 µM
same,TGI,UACC-257 melanoma,> 10 µM
same,TGI,SN12C renal,> 10 µM
same,TGI,SF-539 CNS,> 10 µM
same,TGI,TK-10 renal,> 10 µM
same,TGI,HT29 colon,> 10 µM
same,TGI,DU-145 prostate,> 10 µM
same,TGI,HCT-15 colon,> 10 µM
same,TGI,A498 renal,> 10 µM
same,TGI,SF-295 CNS,> 10 µM
same,TGI,ACHN renal,> 10 µM
same,TGI,K-562 leukemia,> 10 µM
same,TGI,OVCAR-5 ovarian,> 10 µM
same,TGI,MCF7 breast,> 10 µM
same,TGI,HL-60(TB) leukemia,> 10 µM
same,TGI,A549 NSCLC,> 10 µM
same,TGI,M14 melanoma,> 10 µM
same,TGI,SK-MEL-5 melanoma,> 10 µM
